Source: ChEMBL document CHEMBL5303711, “ECBD screening data for assay EOS300108” (2023)
Counter-ions that a name gives are not always drawn. Activity calls are given as the source filed them. How the calls were made is not given here.

Assay: Cytotoxicity activity against human HepG2 cells assessed by CellTiter-Glo luminescent cell viability assay.
Assay type: toxicity, cell-based
Parameters: assay stage confirmatory assay, source tissue liver
Conditions: HepG2 cells, read-out: IC50 relative

SMILES | CC50
C#CCN(Cc1cc2c(=O)[nH]c(C)nc2cc1Br)c1ccc(C(=O)NCc2cccnc2)cc1 | 0.1 µM (active)
Cc1cnc(Nc2ccc(OCCN3CCCC3)cc2)nc1Nc1cccc(S(=O)(=O)NC(C)(C)C)c1 [FEDRATINIB] | 1.1 µM (active)
CCCc1cc2c(N3CCN(C4=NCC(C)(C)S4)CC3)ncnc2s1 | 13.7 µM (active)
C[C@]1(c2cccc(C#N)c2)NC(=O)N(Cc2noc(-c3ccsc3)n2)C1=O | 12.5 µM (inactive)
COc1ccc(CCN2Cc3ccc(N)cc3C2)cc1 | 20.2 µM (inactive)
CCN(CC)S(=O)(=O)c1cccc(C(=O)Nc2cccc(F)c2)c1 | 10.4 µM (active)
CN(Cc1cnc2nc(N)nc(N)c2n1)c1ccc(C(=O)N[C@@H](CCC(=O)O)C(=O)O)cc1 [METHOTREXATE] | < 0.1 µM (active)
CN(C)CCNCc1cccc(OCc2ccc(F)cc2)c1 | 15 µM (inactive)
COc1cc(N2CCC(N(C)C)CC2)ccc1Nc1ncc(Cl)c(Nc2ccccc2P(C)(C)=O)n1 | 2.6 µM (active)
CC(C)Nc1cc(-c2c[nH]c(C(=O)N[C@H](CO)c3cccc(Cl)c3)c2)c(Cl)cn1 [ULIXERTINIB] | 1 µM (active)
Cc1cc(C#N)cc(C)c1Oc1nc(Nc2ccc(C#N)cc2)nc(N)c1Br [ETRAVIRINE] | 50 µM (inactive)
CCCCOc1c(C(=O)c2c(F)cc(C)cc2F)c[nH]c2nncc1-2 | 50 µM (inactive)
COC(=O)[C@H](CC(C)C)NC(=O)c1ccc(NC[C@@H](N)CS)cc1-c1cccc2ccccc12 | 50 µM (inactive)
CCOc1ccc(OCC)c(NC(=O)c2ccc(N3CCN(C(C)C)CC3)cc2)c1 | 9.8 µM (active)
CN(C)c1cccc(S(=O)(=O)Nc2ccc3ncccc3c2)c1 | 3.3 µM (active)
CC(C)(C)c1ccc(S(=O)(=O)NCc2ccc(C(=O)Nc3cccnc3)cc2)cc1 | 2.6 µM (active)
CC1OC(OC2CC(O)C3(CO)C4C(O)CC5(C)C(C6=CC(=O)OC6)CCC5(O)C4CCC3(O)C2)C(O)C(O)C1O (centres undefined) | 0.1 µM (active)
CCCCCCCCc1ccc(CCC(N)(CO)CO)cc1 [FINGOLIMOD HYDROCHLORIDE] | 1.4 µM (active)
Cc1ccccc1C[C@H](C)NCCN1CCC(N(C)C)CC1 | 13.7 µM (inactive)
Oc1ccc(CN2CCc3ccccc3C2)cc1 | 3.4 µM (active)
O=C(Nc1nccs1)C1=C(c2ccccc2)S(=O)(=O)CCO1 | 7.7 µM (active)

SMILES | CC50
COc1ccccc1C(=O)Nc1ccccn1 | 8.4 µM (inactive)
CN(C)C/C=C/C(=O)Nc1ccc(C(=O)N2CCC[C@@H](Nc3ncc(Cl)c(-c4c[nH]c5ccccc45)n3)C2)cc1 | 0.1 µM (active)
CCCOc1ccc(NC(=O)N2CCN(c3ccncc3)CC2)cc1Cl | 7.4 µM (active)
CN1C[C@H](CNC(=O)OCc2ccccc2)C[C@@H]2c3cccc4c3c(cn4C)C[C@H]21 [METERGOLINE] | 6.3 µM (active)
COc1ccc(-n2ccc(C(=O)Nc3cnccc3C(N)=O)n2)cc1 | 5.4 µM (active)
CNC(=O)c1cc(Oc2ccc(NC(=O)Nc3ccc(Cl)c(C(F)(F)F)c3)c(F)c2)ccn1 [REGORAFENIB] | 1.7 µM (active)
CCOC(=O)C(C)Oc1cccc2c(=O)n(CC(=O)Nc3ccc(OC)cc3)ccc12 (centres undefined) | 15.4 µM (inactive)
Cc1cc(NC(=O)c2cscn2)ccc1NC(=O)c1ccco1 | 9.1 µM (active)
CCN1CCC(NC[C@H](C)Oc2ccc(C(C)C)cc2)CC1 | 7.1 µM (active)
CCOc1ccccc1C(=O)N1CCN(c2ccccc2OCC)CC1 | 15.1 µM (inactive)
Cc1cc2c(C(C)C)c(O)c(O)c(C=O)c2c(O)c1-c1c(C)cc2c(C(C)C)c(O)c(O)c(C=O)c2c1O [GOSSYPOL] | 6.4 µM (active)
CCCCN[C@H]1CS(=O)(=O)C[C@@H]1S(=O)(=O)c1ccc(Cl)cc1 | 9.3 µM (active)
C[C@@H]1Oc2ccccc2N(CC(=O)Nc2nc(-c3ccccn3)cs2)C1=O | 3.3 µM (active)
Cc1cc(C)cc(C(=O)NOCCCCCC(=O)NO)c1 | 0.5 µM (active)
CCOc1ccc(S(=O)(=O)NCC2(C)CCNCC2)c2ccccc12 | 10 µM (active)
O=c1oc(-c2ccccc2)cc(Cl)c1Cl | 5.5 µM (active)
CC1(C)CCCN(c2ccnc(N[C@H]3CCCOCC3)n2)C1 | 8 µM (active)
CN(CCN1CCC(OC(=O)Nc2ccccc2-c2ccccc2)CC1)C(=O)c1ccc(CN2CCC(C(N)=O)CC2)cc1 [REVEFENACIN] | 13.2 µM (active)
C[C@H]1Cc2c([nH]c3cc(Cl)c(F)cc23)[C@@]2(N1)C(=O)Nc1ccc(Cl)cc12 [CIPARGAMIN] | 10.8 µM (active)
O=[N+]([O-])c1ccc(NN=Cc2sc(N3CCOCC3)nc2-c2ccccc2)c(S(=O)(=O)Nc2ccccc2Cl)c1 | 2.7 µM (active)
CS(=O)(=O)c1ncc(Br)c(C(=O)Nc2ccc(F)cc2)n1 | 2.8 µM (active)

SMILES | CC50
CCCCc1nc(-c2ccc(OCCCN(CC)CC)cc2)cn1-c1ccc(Oc2ccc(Cl)cc2)cc1 [AZELIRAGON] | 1.2 µM (active)
CC[C@H](CO)Nc1nc(NCc2ccccc2)c2ncn(C(C)C)c2n1 [SELICICLIB] | 7.8 µM (active)
CC(C)(C)c1cc(C=C(C#N)C#N)cc(C(C)(C)C)c1O [TYRPHOSTIN A9] | 0.8 µM (active)
Cc1ccc(NC(=O)c2ccc(CN3CCN(C)CC3)cc2)cc1Nc1nc(-c2cccnc2)cs1 [MASITINIB] | 3.5 µM (active)
Cc1c(O)ccc2c(CN3CCN(c4ccc(F)cc4)CC3)cc(=O)oc12 | 24.8 µM (inactive)
[O-][n+]1ccccc1S [PYRITHIONE] | 1.1 µM (active)
CCn1c(Oc2cccc3cccnc23)nc2c1c(=O)n(C)c(=O)n2C | 2.9 µM (active)
CC1(C)CC[C@]2(C(=O)O)CC[C@]3(C)[C@H](C(=O)C=C4[C@@]5(C)C=C(C#N)C(=O)C(C)(C)[C@@H]5CC[C@]43C)[C@@H]2C1 [BARDOXOLONE] | 3.7 µM (active)
CCOc1cc(C(C)(C)C)ccc1C1=N[C@@](C)(c2ccc(Cl)cc2)[C@@](C)(c2ccc(Cl)cc2)N1C(=O)N1CCN(CCCS(C)(=O)=O)CC1 [RO-5045337] | 6.3 µM (active)
Cc1ccc(-c2noc(-c3cccc(OCC(=O)N4CCN(C)CC4)c3)n2)cc1 | 6.3 µM (active)
CO[C@]1(C(=O)N[C@@H](C)c2ccc(-n3cc(F)cn3)nc2)CC[C@H](c2nc(C)cc(Nc3cc(C)[nH]n3)n2)CC1 [PRALSETINIB] | 9.3 µM (active)
CCCS(=O)(=O)N1CCc2ccc(NC(=O)Nc3ccc(OCC)cc3)cc21 | 50 µM (inactive)
Cc1cc(/C=C/C#N)cc(C)c1Nc1ccnc(Nc2ccc(C#N)cc2)n1 [RILPIVIRINE] | 11 µM (inactive)
COc1ccc(-c2nnc(Cn3ncc(Cl)c(Cl)c3=O)o2)cc1 | 0.9 µM (active)
c1ccc(-c2cnn3c(-c4ccco4)ccnc23)cc1 | 0.5 µM (active)
Cc1nn(-c2cccc(Cl)c2)nc1C(=O)NC1CCN(C)CC1 | 9.4 µM (active)
Cc1nc(-c2cccc(C(=O)N3CCN(Cc4noc(-c5ccc(F)cc5)n4)CC3)c2)no1 | 5.4 µM (active)
C[C@@H]1COC(Nc2ccc3ncnc(Nc4ccc(OCc5nccs5)c(Cl)c4)c3c2)=N1 [VARLITINIB] | 50 µM (inactive)
O=C(NOCCO)c1ccc2cncn2c1Nc1ccc(I)cc1F [GDC-0623] | < 0.1 µM (active)
CCOCC(=O)N1CCN(c2nc3c(s2)c(C)nn3-c2ccc(OC)cc2)CC1 | 11.5 µM (active)
Cc1ccc(Nc2nc(N3CCN(CCO)CC3)nc3c2cnn3C)cc1Cl | 4.8 µM (active)

SMILES | CC50
CC(C)N1CCN(Cc2nc(Cn3ccn4nc(-c5ccccc5)cc4c3=O)no2)CC1 | 8.2 µM (active)
N#CCCn1c(=O)c(C(=O)NCCCc2ccccc2)c(O)c2ccccc21 | 5.9 µM (active)
CN(C)c1nc2c(Br)c(Br)c(Br)c(Br)c2[nH]1 | 50 µM (inactive)
CCN(CC)S(=O)(=O)c1ccc(C(=O)Nc2cc(C)nn2-c2nc(C)cc(=O)[nH]2)cc1 | 6.5 µM (inactive)
CCOc1cc2ccccc2cc1C(=O)NCc1ccco1 | 1.7 µM (active)
C[C@@H]1CN(CC(=O)Nc2ccc3c(c2)Cc2cccc(-c4cc(=O)cc(N5CCOCC5)o4)c2S3)C[C@H](C)O1 | 17.8 µM (inactive)
Cc1ccc(CN2CCN(C3CCNC3)CC2)c(Cl)c1Cl (centres undefined) | 7.7 µM (active)
CCOc1cc(C(Nc2cc(C)ccn2)c2ccc3cccnc3c2O)ccc1OC (centres undefined) | 3.7 µM (active)
CO/N=C(/C(=O)OC)c1ccccc1COc1ccccc1C [KRESOXIM-METHYL] | 12.5 µM (active)
CC(=O)c1ccc(N2CCN(S(=O)(=O)c3ccc4onc(C(=O)N5CCCC5)c4c3)CC2)cc1 | 0.9 µM (active)
COc1cc(OC2CCN(C)CC2)ccc1Nc1ncc2c(n1)n(C1CCCC1)c(=O)n2C | 5 µM (active)
CCN(CC)c1cc(C)nc(Nc2ccc(NC(=O)C3CCCO3)cc2)n1 (centres undefined) | 11.3 µM (active)
COc1ccc(Nc2nc(CN3CCN(S(=O)(=O)c4cccs4)CC3)cs2)cc1 | 7.1 µM (active)
Cn1ncc2cc(-c3cnc(N)c(Cl)c3N3CCC4(CCNC4=O)CC3)ccc21 | 5.7 µM (active)
CN[C@@H](C)C(=O)N[C@H](C(=O)N1CCC[C@H]1C(=O)N[C@H]1c2ccccc2C[C@H]1OCC#CC#CCO[C@@H]1Cc2ccccc2[C@@H]1NC(=O)[C@@H]1CCCN1C(=O)[C@@H](NC(=O)[C@H](C)NC)C1CCCCC1)C1CCCCC1 | 3.7 µM (active)
O=C(Nc1nccs1)c1cccc(S(=O)(=O)N2CCN(c3ccc(F)cc3)CC2)c1 | 3.1 µM (active)
O=C(Nc1ccccc1O)c1cccc(NC(=O)c2cccs2)c1 | 7.1 µM (active)
Cc1noc2ncnc(N3CCC(C(=O)N4CCN(c5cccc(Cl)c5)CC4)CC3)c12 | 9.6 µM (active)
CCOC(=O)C(C)Oc1cccc2c(=O)n(CC(=O)Nc3ccc4c(c3)OCCO4)ccc12 (centres undefined) | 50 µM (inactive)
COc1ccc(C)cc1CN(C)C(=O)CCN1C(=O)COc2ccccc21 | 5.1 µM (inactive)
Cc1ccn(-c2cc(N3CCN(C(=O)Nc4ccc5c(c4)OCCO5)CC3)ncn2)n1 | 10.7 µM (active)
